Measurements: ChEMBL document CHEMBL4334471, “Discovery of 1,8-disubstituted-[1,2,3]triazolo[4,5-c]quinoline derivatives as a new class of Hippo signaling pathway inhibitors” (Bioorg Med Chem Lett, 2019)

Key:
[1] = molecular target: Protein kinase C epsilon type (Homo sapiens) (UniProt Q02156); test: Inhibition of recombinant human PKCepsilon (2 to end residues) assessed as residual activity at 10 uM using ERMRPRKRQGSVRRRV as substrate incubated for 40 mins in presence of [gamma33P]ATP by scintillation counting based radiometry assay relative to control
Protein kinase C epsilon type (Homo sapiens), sequence (Q02156 whole entry): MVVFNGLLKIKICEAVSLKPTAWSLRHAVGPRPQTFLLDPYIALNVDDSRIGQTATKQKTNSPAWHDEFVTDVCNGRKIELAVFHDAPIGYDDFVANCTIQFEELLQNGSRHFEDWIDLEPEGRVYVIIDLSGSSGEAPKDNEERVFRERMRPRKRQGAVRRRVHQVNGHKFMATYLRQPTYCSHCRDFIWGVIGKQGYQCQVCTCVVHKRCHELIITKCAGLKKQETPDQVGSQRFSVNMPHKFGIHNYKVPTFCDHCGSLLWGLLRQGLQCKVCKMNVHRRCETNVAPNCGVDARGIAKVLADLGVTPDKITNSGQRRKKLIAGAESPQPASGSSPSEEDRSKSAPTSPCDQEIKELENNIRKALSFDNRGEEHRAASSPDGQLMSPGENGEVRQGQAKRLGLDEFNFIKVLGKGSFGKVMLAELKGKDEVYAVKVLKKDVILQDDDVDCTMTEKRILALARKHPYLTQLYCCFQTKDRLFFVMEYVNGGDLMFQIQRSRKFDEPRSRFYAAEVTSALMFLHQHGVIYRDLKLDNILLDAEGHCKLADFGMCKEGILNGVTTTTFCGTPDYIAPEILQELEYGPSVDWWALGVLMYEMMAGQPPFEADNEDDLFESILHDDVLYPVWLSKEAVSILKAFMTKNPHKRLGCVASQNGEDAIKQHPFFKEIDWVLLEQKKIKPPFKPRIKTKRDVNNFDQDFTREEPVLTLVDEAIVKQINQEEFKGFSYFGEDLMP

[2] = molecular target: Tyrosine-protein kinase JAK1 (Homo sapiens) (UniProt P23458); test: Inhibition of human JAK1 (866 to end residues) assessed as residual activity at 10 uM using GEEPLYWSFPAKKK as substrate after 40 mins by [gamma-33ATP] radiometric assay relative to control
Tyrosine-protein kinase JAK1 (Homo sapiens), sequence (P23458 whole entry): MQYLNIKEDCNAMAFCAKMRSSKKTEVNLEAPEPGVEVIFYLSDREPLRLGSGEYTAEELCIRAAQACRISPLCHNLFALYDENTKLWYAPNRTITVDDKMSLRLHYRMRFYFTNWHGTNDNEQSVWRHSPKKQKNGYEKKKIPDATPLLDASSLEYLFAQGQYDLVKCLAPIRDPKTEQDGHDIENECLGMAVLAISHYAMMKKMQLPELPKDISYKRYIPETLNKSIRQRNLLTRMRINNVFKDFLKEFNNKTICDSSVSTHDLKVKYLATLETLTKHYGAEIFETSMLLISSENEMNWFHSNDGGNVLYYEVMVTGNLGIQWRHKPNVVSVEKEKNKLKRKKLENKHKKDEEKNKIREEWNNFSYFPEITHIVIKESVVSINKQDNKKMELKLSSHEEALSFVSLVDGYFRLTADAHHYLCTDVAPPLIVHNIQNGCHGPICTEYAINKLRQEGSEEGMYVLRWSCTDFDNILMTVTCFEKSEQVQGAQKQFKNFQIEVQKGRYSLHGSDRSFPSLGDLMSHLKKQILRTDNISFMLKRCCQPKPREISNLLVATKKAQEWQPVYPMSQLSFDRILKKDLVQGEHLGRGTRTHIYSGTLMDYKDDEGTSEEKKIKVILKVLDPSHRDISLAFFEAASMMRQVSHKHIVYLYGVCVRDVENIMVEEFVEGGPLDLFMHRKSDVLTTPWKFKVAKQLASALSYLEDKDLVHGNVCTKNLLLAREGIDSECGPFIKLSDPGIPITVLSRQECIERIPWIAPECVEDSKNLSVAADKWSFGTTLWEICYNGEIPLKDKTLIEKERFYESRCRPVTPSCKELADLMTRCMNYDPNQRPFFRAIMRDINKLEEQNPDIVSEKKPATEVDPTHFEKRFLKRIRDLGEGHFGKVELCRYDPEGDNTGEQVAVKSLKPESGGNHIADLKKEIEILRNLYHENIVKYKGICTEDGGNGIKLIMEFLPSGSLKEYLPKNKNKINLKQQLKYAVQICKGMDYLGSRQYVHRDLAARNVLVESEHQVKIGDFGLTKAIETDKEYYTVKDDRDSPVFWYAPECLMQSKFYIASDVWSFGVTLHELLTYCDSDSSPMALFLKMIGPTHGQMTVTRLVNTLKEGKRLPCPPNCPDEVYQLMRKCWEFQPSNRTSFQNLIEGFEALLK

[3] = molecular target: Tyrosine-protein kinase FRK (Homo sapiens) (UniProt P42685); test: Inhibition of recombinant human PTK5 (218 to end residues) assessed as residual activity at 10 uM using GGEEEEYFELVKKKK as substrate incubated for 40 mins in presence of [gamma33P]ATP by scintillation counting based radiometry assay relative to control
[4] = molecular target: Testis-specific serine/threonine-protein kinase 4 (Homo sapiens) (UniProt Q6SA08); test: Inhibition of recombinant full-length human TSSK4 assessed as residual activity at 10 uM using KKLNRTLSFAEPG as substrate incubated for 40 mins in presence of [gamma33P]ATP by scintillation counting based radiometry assay relative to control
[5] = molecular target: Serine/threonine-protein kinase/endoribonuclease IRE1 (Homo sapiens) (UniProt O75460); test: Inhibition of human IRE1 (465 to end residues) assessed as residual activity at 10 uM using myelin basic protein as substrate after 40 mins by [gamma-33ATP] radiometric assay relative to control
[6] = molecular target: Ephrin type-A receptor 5 (Homo sapiens) (UniProt P54756); test: Inhibition of recombinant human EphA5 (655to 956 residues) assessed as residual activity at 10 uM using poly(Glu, Tyr) 4:1 as substrate at 40 mins in presence of [gamma-33ATP] by scintillation counting based radiometry assay relative to control
Ephrin type-A receptor 5 (Homo sapiens), sequence (P54756 whole entry, the tested form may be a part): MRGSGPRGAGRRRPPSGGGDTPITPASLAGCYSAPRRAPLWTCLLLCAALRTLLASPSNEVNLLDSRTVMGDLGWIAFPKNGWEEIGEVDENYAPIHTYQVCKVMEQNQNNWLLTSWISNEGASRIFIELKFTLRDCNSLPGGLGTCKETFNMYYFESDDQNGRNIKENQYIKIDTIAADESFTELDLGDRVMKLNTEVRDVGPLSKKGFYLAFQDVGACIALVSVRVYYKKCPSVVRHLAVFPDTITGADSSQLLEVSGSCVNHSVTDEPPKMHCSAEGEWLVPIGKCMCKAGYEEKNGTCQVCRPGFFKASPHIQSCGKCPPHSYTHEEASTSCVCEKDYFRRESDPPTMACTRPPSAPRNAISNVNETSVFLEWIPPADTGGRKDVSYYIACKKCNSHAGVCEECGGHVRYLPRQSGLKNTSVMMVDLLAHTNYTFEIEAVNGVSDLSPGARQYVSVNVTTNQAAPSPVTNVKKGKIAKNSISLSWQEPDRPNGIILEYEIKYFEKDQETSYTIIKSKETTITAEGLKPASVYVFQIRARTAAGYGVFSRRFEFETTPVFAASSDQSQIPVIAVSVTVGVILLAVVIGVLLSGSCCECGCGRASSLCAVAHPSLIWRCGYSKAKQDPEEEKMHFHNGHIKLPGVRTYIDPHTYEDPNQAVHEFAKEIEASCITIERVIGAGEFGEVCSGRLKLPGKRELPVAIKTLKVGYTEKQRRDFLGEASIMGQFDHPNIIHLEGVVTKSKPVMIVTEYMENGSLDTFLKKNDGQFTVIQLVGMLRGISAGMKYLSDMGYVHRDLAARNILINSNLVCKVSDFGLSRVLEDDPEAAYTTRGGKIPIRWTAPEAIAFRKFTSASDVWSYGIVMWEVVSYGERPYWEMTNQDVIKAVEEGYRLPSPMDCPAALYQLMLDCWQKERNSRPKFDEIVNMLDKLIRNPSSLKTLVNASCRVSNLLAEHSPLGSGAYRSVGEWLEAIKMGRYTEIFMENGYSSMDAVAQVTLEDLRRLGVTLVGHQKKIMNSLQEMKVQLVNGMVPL

[7] = test system: Fungi; test: Inhibition of recombinant fungi CK1 (2 to 298 residues) assessed as residual activity at 10 uM using KRRRALS(p)VASLPGL as substrate incubated for 40 mins in presence of [gamma-33ATP] by scintillation counting based radiometry assay relative to control
[8] = molecular target: cGMP-dependent protein kinase 2 (Homo sapiens) (UniProt Q13237); test: Inhibition of recombinant full-length human PRKG2 assessed as residual activity at 10 uM using KKLRRTLSFAEPG as substrate incubated for 40 mins in presence of [gamma33P]ATP by scintillation counting based radiometry assay relative to control
cGMP-dependent protein kinase 2 (Homo sapiens), sequence (Q13237 whole entry): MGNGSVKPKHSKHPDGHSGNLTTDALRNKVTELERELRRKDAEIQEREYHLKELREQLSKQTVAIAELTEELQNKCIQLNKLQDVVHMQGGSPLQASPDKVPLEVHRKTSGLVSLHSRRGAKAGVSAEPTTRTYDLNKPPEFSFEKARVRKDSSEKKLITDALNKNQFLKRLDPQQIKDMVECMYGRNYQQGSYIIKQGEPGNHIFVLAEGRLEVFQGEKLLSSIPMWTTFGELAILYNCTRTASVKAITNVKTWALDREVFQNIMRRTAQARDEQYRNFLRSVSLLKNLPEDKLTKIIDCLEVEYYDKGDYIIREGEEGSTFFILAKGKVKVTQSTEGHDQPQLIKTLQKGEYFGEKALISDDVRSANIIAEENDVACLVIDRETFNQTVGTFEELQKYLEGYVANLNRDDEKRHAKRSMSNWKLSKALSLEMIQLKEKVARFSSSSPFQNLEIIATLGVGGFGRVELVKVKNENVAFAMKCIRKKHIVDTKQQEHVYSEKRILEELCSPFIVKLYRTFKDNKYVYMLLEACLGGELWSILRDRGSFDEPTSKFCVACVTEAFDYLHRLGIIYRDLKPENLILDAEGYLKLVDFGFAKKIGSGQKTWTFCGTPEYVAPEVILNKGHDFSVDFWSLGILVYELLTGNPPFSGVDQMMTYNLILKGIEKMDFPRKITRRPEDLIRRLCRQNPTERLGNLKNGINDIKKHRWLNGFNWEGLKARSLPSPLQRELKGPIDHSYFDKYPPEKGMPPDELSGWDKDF

[9] = molecular target: Ribosomal protein S6 kinase alpha-6 (Homo sapiens) (UniProt Q9UK32); test: Inhibition of recombinant full length human Rsk4 assessed as residual activity at 10 uM using LRRASLG as substrate incubated for 40 mins in presence of [gamma33P]ATP by scintillation counting based radiometry assay relative to control
[10] = test system: Fibroblast growth factor receptor 2 (Homo sapiens), P21802 [N549H]; test: Inhibition of recombinant human FGFR2 N549H mutant (456 to 765 residues) assessed as residual activity at 10 uM using KKKSPGEYVNIEF as substrate at 40 mins in presence of [gamma-33ATP] by scintillation counting based radiometry assay relative to control
[11] = molecular target: Serine/threonine-protein kinase 32A (Homo sapiens) (UniProt Q8WU08); test: Inhibition of recombinant human full length STK32A assessed as residual activity at 10 uM using casein as substrate incubated for 40 mins in presence of [gamma33P]ATP by scintillation counting based radiometry assay relative to control
Serine/threonine-protein kinase 32A (Homo sapiens), sequence (Q8WU08 whole entry): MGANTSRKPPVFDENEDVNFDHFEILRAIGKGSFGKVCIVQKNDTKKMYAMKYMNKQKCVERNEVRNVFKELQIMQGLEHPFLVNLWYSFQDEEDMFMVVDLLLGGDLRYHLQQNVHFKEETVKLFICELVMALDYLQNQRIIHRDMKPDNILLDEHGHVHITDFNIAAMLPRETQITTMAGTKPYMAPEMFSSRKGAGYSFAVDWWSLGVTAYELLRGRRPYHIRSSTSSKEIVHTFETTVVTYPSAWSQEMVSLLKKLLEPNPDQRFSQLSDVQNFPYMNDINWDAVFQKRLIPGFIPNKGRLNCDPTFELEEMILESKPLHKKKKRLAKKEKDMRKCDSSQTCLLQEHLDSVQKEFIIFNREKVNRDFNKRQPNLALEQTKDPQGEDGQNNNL

[12] = molecular target: Protein kinase C beta type (Homo sapiens) (UniProt P05771); test: Inhibition of recombinant human PKCbeta1 (2 to end residues) assessed as residual activity at 10 uM using histone H1 as substrate incubated for 40 mins in presence of [gamma33P]ATP by scintillation counting based radiometry assay relative to control
[13] = test system: Receptor tyrosine-protein kinase erbB-2 (Homo sapiens), P04626 [G778D]; test: Inhibition of recombinant human ERBB2 G778D mutant (676 to end residues) assessed as residual activity at 10 uM using poly(Glu, Tyr) 4:1 as substrate at 40 mins in presence of [gamma-33ATP] by scintillation counting based radiometry assay relative to control
[14] = molecular target: Insulin receptor (Homo sapiens) (UniProt P06213); test: Inhibition of human IR activated (1005 to 1310 residues) assessed as residual activity at 10 uM using KKSRGDYMTMQIG as substrate after 40 mins by [gamma-33ATP] radiometric assay relative to control
[15] = molecular target: High affinity nerve growth factor receptor (Homo sapiens) (UniProt P04629); test: Inhibition of recombinant human TRKA (440 to end residues) assessed as residual activity at 10 uM using KKKSPGEYVNIEF as substrate incubated for 40 mins in presence of [gamma33P]ATP by scintillation counting based radiometry assay relative to control
[16] = molecular target: Aurora kinase C (Homo sapiens) (UniProt Q9UQB9); test: Inhibition of recombinant human Aurora C (35 to end residues) assessed as residual activity at 10 uM using AKRRRLSSLRA as substrate incubated for 40 mins in presence of [gamma-33ATP] by scintillation counting based radiometry assay relative to control
[17] = molecular target: Serine/threonine-protein kinase D2 (Homo sapiens) (UniProt Q9BZL6); test: Inhibition of recombinant full-length human PKD2 assessed as residual activity at 10 uM using KKLNRTLSVA as substrate incubated for 40 mins in presence of [gamma33P]ATP by scintillation counting based radiometry assay relative to control
Serine/threonine-protein kinase D2 (Homo sapiens), sequence (Q9BZL6 whole entry): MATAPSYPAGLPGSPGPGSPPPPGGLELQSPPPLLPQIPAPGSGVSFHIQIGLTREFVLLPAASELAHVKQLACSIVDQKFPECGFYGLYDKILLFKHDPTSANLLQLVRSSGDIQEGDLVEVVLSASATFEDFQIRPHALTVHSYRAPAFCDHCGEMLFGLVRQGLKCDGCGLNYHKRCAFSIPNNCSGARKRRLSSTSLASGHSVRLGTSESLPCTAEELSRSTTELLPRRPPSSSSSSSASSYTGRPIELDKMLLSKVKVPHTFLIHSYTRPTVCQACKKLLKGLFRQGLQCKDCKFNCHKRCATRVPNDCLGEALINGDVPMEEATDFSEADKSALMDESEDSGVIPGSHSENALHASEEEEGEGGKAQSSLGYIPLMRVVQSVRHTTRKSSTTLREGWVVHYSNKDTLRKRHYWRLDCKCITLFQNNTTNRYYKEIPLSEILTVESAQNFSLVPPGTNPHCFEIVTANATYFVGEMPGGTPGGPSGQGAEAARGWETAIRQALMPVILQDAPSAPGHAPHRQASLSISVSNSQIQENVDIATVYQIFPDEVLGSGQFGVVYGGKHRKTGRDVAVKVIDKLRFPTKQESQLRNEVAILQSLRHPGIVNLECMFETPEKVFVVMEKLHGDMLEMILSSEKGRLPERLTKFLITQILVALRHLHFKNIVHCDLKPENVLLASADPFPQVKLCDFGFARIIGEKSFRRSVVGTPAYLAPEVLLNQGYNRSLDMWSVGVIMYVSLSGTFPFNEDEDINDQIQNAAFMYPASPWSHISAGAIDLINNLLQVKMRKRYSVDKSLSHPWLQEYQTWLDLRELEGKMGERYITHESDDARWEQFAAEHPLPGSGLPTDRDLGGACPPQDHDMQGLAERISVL

[18] = test system: Macrophage colony-stimulating factor 1 receptor (Homo sapiens), P07333 [Y969C]; test: Inhibition of recombinant human FMS Y969C mutant (538 to end residues) assessed as residual activity at 10 uM using EEEEYEEEEEEYYIIEEEEEEYEEEEEEYYEEEEEEKKKK as substrate at 40 mins in presence of [gamma-33ATP] by scintillation counting based radiometry assay relative to control
[19] = molecular target: Serine/threonine-protein kinase Nek2 (Homo sapiens) (UniProt P51955); test: Inhibition of recombinant full-length human NEK2 assessed as residual activity at 10 uM using myelin basic protein as substrate measured after 40 mins in presence of [gamma33P]ATP by scintillation counting based radiometry assay relative to control
[20] = molecular target: Casein kinase II subunit alpha' (Homo sapiens) (UniProt P19784); test: Inhibition of recombinant full length human CK2alpha2 assessed as residual activity at 10 uM using RRRDDDSDDD as substrate incubated 40 mins in presence of [gamma-33ATP] by scintillation counting based radiometry assay relative to control
[21] = molecular target: Bone morphogenetic protein receptor type-1B (Homo sapiens) (UniProt O00238); test: Inhibition of human ALK6 (148 to end residues) assessed as residual activity at 10 uM using casein as substrate incubated for 40 mins in presence of [gamma-33ATP] by scintillation counting based radiometry assay relative to control

## C[C@@H](c1ccccc1)n1nnc2cnc3ccc(-c4cnc5[nH]ccc5c4)cc3c21
[1]
  Activity: 97%
[2]
  Activity: 47%
[3]
  Activity: 7%
[4]
  Activity: 77%
[5]
  Activity: 86%
[6]
  Activity: 102%
[7]
  Activity: 37%
[8]
  Activity: 52%
[9]
  Activity: 62%
[10]
  Activity: 27%
[11]
  Activity: 95%
[12]
  Activity: 110%
[13]
  Activity: 120%
[14]
  Activity: 62%
[15]
  Activity: 5%
[16]
  Activity: 68%
[17]
  Activity: 65%
[18]
  Activity: 52%
[19]
  Activity: 75%
[20]
  Activity: 83%
[21]
  Activity: 93%
